For assay [1], the system named is RAW264.7. Briefly: Inhibition of NO production in LPS-stimulated mouse RAW264.7 cells at > 100 uM incubated for 24 hrs by Griess reagent-based assay. The format is functional, cell-based. A general note: The Griess reaction detects nitrite, a stable product of nitric oxide.
In assay [2] the target is T1, Alpha glucosidase (Homo sapiens, UniProt O43451+P10253+P14410+Q2M2H8). Kind of assay: Inhibition of alpha-glucosidase (unknown origin) using p-nitrophenyl alpha-D-glucoside as substrate preincubated for 0.5 hrs followed substrate addition and measured after 1 hr by colorimetric method. The format is protein assay.
Assay [3] concerns RAW264.7. Briefly: Inhibition of NO production in LPS-stimulated mouse RAW264.7 cells incubated for 24 hrs by Griess reagent-based assay. The format is functional, cell-based. The note with it: RAW264.7, 24 h.
For assay [4], the target named is T1, Alpha glucosidase. Kind of assay: Inhibition of alpha-glucosidase (unknown origin) at > 100 uM using p-nitrophenyl alpha-D-glucoside as substrate preincubated for 0.5 hrs followed substrate addition and measured after 1 hr by colorimetric method. The format is protein assay.

Here are results for 13 compounds from ChEMBL document CHEMBL4342443, “Phloroglucinol Benzophenones and Xanthones from the Leaves of Garcinia cowa and Their Nitric Oxide Production and α-Glucosidase Inhibitory Activities” (J Nat Prod, 2020).

Activity calls are given as the source filed them. No cut-off for these calls is given here.

For `COc1c(O)cc2oc3cc(O)c(CC=C(C)C)c(O)c3c(=O)c2c1C/C=C(\C)CCC=C(C)C` [COWANIN], the inhibition result in assay [1] is “inactive”. Further, the IC50 (in general, the concentration that inhibits the measured activity by half) in assay [2] stood at 37.4 µM.

Regarding `COc1c(O)cc2oc3cc(O)c(C/C=C(\C)CO)c(O)c3c(=O)c2c1C/C=C(\C)CCC=C(C)C`, the results for the IC50 in assay [3] and in assay [2] were 13.4 µM and 28.7 µM, respectively.

Consider `N=C(N)NN` [PIMAGEDINE], for which the midpoint of inhibition in assay [3], the IC50, lay at 19.9 µM.

`COc1c(O)cc2oc3cc(O)c(CCC(C)(C)O)c(O)c3c(=O)c2c1CC=C(C)C` had an IC50 in assay [3] of 5.4 µM. The inhibition entry in assay [4] was “inactive”.

For the compound `CC1(C)CCc2c(cc3oc4c(O)c(O)ccc4c(=O)c3c2O)O1`, the inhibition result in assay [4] and in assay [1] was “inactive” throughout.

Regarding `COc1cc2oc3cc(O)c(OC)c(CC=C(C)C)c3c(=O)c2c(O)c1CC=C(C)C`, the inhibition entry in assay [1] was “inactive”. Moreover, in assay [2], the IC50 amounted to 22.6 µM.

In assay [3], `CC(C)=CC[C@@H]1C[C@@]23CCC(C)(C)OC2=C(C(=O)c2ccccc2)C(=O)[C@H](C3=O)[C@@]1(C)CCCC(C)(C)O` yielded an IC50 of 11 µM. For the same compound, the inhibition entry in assay [4] was “inactive”.

With `CC(C)=CCC/C(C)=C/CCC(C)(O)CCc1c(O)c(O)cc2oc3cc(O)cc(O)c3c(=O)c12` (racemic), the IC50 in assay [3] was 7.7 µM; in assay [2] it was 25.4 µM.

Turning to `CC(C)=CCC/C(C)=C/CC/C(C)=C/CCC(C)(O)CCc1c(O)c(O)cc2oc3cc(O)cc(O)c3c(=O)c12` (racemic), the IC50 came to 5.8 µM in assay [3] and 15.4 µM in assay [2].

In the case of `CC(C)=CCC/C(C)=C/Cc1c(O)cc2oc3c(O)cccc3c(=O)c2c1O`, the inhibition entry in assay [4] and in assay [1] was “inactive” throughout.

Consider `COc1c(O)cc2oc3cc4c(c(O)c3c(=O)c2c1CC=C(C)C)C=CC(C)(C)O4` [MANGOSTANIN], for which the results for the IC50 in assay [3] and in assay [2] were 18.6 µM and 11.4 µM, respectively.

In the case of `CC(C)=CCC/C(C)=C/CC/C(C)=C/Cc1c(O)c(O)cc2oc3cc(O)cc(O)c3c(=O)c12`, the inhibition result in assay [1] is “inactive”. Also, the IC50 in assay [2] was determined as 76.2 µM.

For `CC(C)(O)CCC[C@@]1(C)[C@H](CCC(C)(C)O)C[C@@]23CCC(C)(C)OC2=C(C(=O)c2ccccc2)C(=O)[C@@H]1C3=O`, the inhibition entry in assay [4] and in assay [1] was “inactive” each time.
